Test results from US9937250B2, “Immunogenic tumor associated stromal cell antigen peptides and methods of their use” (University of Pittsburgh—Of the Commonwealth System of …, priority 2011, dated 2018).

How the values were obtained:
B16 melanoma = assay: Therapeutic vaccination of established B16 melanoma (tumor growth, survival); format: in vivo, HHD or C57BL/6 (B6) mice; conditions: for Survival of B16-bearing HHD mice: followed through 60 days post-tumor inoculation (FIG. 11C); for B16 tumor growth in HHD mice: therapeutic vaccines, HHD mice (FIG. 11B)
Procedure: FIGS. 11A-11C show a series of graphs illustrating that DC.IL12 vaccines containing TASA-derived peptides are therapeutic against MC38 colon carcinomas and B16 melanomas in HHD mice. In FIG. 11A, HHD mice bearing established day seven subcutaneous MC38 tumors (right flank) were left untreated, or they were vaccinated in the left flank with control DC.IL12 or DC.IL12 pulsed with an equimolar pool (10 μM each) of the following TASA-derived peptides: DLK1326-334, EPhA2883-891, HBB31-39, NRP1869-877, PDGFRβ890-898, RGS55-13 and TEM1691-700. Identical booster vaccines were provided on day 14 post-tumor inoculation. As indicated, two vaccine cohorts were treated with depleting anti-CD4 or anti-CD8 monoclonal antibodies to evaluate the impact of these T cell subsets on therapy outcome. Tumor growth was monitored every 3-4 days through d28. In FIG. 11B, Female HHD or C57BL/6 (B6) mice were inoculated subcutaneously in the right flank with 1×10^5B16 (HLA-A2^neg) tumor cells. […] The mice then received vaccines consisting of isologous control or peptide-pulsed DC.IL12 cells subcutaneously in the left flank on days 10 and 17 (post-tumor inoculation). In cases where more than one peptide was identified for a given target antigen, an equimolar pool of the indicated peptides (each 10 μM) was pulsed onto DC.IL12 and used for vaccination. Tumor size (mean+/−SD) was monitored every 3-4 days through day 34. In FIG. 11A and FIG. 11B, mean tumor area+/−SD is reported for 5 animals/cohort. Data are the representative of those obtained in two independent experiments in each case. *p<0.05 versus DC only on the indicated days. In FIG. 11C, HHD mice bearing subcutaneous B16 melanomas were treated as described in FIG. 11B and followed through day 60 post-tumor inoculation. Data are reported in a Kaplan-Meier plot depicting overall percentage of surviving animals over time. *p<0.02 versus DC only; **p<0.002 versus DC only (with refined p-values for differences between treatment cohorts reported in Table 6). Data are cumulative for three independent experiments performed.
Vaccine Experiments. For prophylactic experiments, HHD mice were immunized subcutaneously on the right flank with 100 μl PBS or PBS containing 10^6 syngenic DC.IL12 cells that had been untreated or pre-pulsed for 4 h at 37° C. with 10 μM synthetic peptide(s). […] For analysis of tumor cellular composition in repeat experiments, MC38 tumors were isolated by surgical resection 10 days after tumor inoculation and prepared for fluorescence imaging, as described below. […] In some assays, as indicated, in vivo antibody depletions (on days 6, 13 and 20 post-tumor inoculation to assess early involvement or on days 60 and 67 or 180 and 187 to assess late involvement) of protective CD4^+ T cells or CD8^+ T cells were performed and monitored as previously described (Zhao et al., Mol Ther., 19:805-814, 2011). In all cases, tumor size (area) was monitored every 3-4 days and is reported as mean+/−SD in mm^2.
To analyze the status and specificity of Tc1 cells, HHD mice rendered free of B16 melanoma after therapeutic vaccination with DLK or RGS5 peptide-based vaccines were sacrificed 60 days after tumor inoculation. Fresh MACS-isolated spleen CD8^+ T cells were then analyzed for reactivity against HLA-A2^+PDGFRβ^+CD31^neg pericytes, HLA-A2^+PDGFRβ^negCD31^+ VEC or HLA-A2^neg tumor cells flow-sorted from day 19 B16 tumors growing progressively in untreated HHD mice. […]

MC38 colon carcinoma = assay: MC38 protection (prophylactic vaccination) model; format: in vivo, HHD mice; conditions: immunization days -14 and -7, tumor challenge day 0 (FIG. 9B)
Text: FIGS. 9A-9B show a series of graphs illustrating induction of specific/protective CD8^+ T cells reactive against TASA as a consequence of DC/peptide-based vaccination. In FIG. 9A, HHD mice (five animals/cohort) were vaccinated twice (d-14, d-7) subcutaneously with PBS or with isologous DC.IL12 pulsed with PBS or synthetic peptides (Table 6) derived from the indicated TASA. In cases where more than 1 peptide was identified for a given target antigen, an equimolar pool of the indicated peptides (each 10 μM) was pulsed onto DC.IL12 and used for vaccination in the relevant cohort. One week after the second immunization, spleens were harvested and splenic CD8^+ T cells isolated using MACS-beads (Miltenyi). T cells were stimulated in vitro for 48 h using the HLA-A2^+ T2 cell line pulsed with relevant TASA vs. irrelevant HIV-nef190-198 ([…]; ref. 24) peptides. Cell-free supernatants were then recovered and IFN-γ levels by ELISA. Data are reported as mean+/−SD for triplicate ELISA determinations, and are representative of 3 independent experiments performed. *p<0.05 vs. HIV-nef control peptide responses. In FIG. 9B, HHD mice were vaccinated twice (days −14 and −7; right flank) subcutaneously with PBS or with isologous DC.IL12 pulsed with PBS or synthetic TASA peptides as indicated in FIG. 1A. In cases where more than 1 peptide is identified for a given target antigen, an equimolar pool of the indicated peptides (each 10 μM) was pulsed onto DC.IL12 and used for vaccination in the relevant cohort. One week after the booster vaccine (i.e. day zero), animals were challenged subcutaneously on their left flank with 2×10^6 MC38 colon carcinoma cells. Tumor growth was then monitored every 3-4 days through day 24. All data represent mean tumor area (in mm^2)+/−SD determined from 5 mice/cohort, and are representative of three independent experiments performed. *p<0.05 versus DC only on the indicated days.
Vaccine Experiments. For prophylactic experiments, HHD mice were immunized subcutaneously on the right flank with 100 μl PBS or PBS containing 10^6 syngenic DC.IL12 cells that had been untreated or pre-pulsed for 4 h at 37° C. with 10 μM synthetic peptide(s). Immunizations occurred on days −14 and −7, with mice subsequently receiving injections of MC38 (2×10^6) tumor cells in the left flank on d0. In all cases, treatment groups contained 5 mice per cohort. For analysis of tumor cellular composition in repeat experiments, MC38 tumors were isolated by surgical resection 10 days after tumor inoculation and prepared for fluorescence imaging, as described below. […] Mice were then untreated or treated with control, syngenic DC.IL12 or DC.IL12 (10^6 cells injected subcutaneously in the left flank on days 7 and 14) pulsed with synthetic TBVA peptides. In some assays, as indicated, in vivo antibody depletions (on days 6, 13 and 20 post-tumor inoculation to assess early involvement or on days 60 and 67 or 180 and 187 to assess late involvement) of protective CD4^+ T cells or CD8^+ T cells were performed and monitored as previously described (Zhao et al., Mol Ther., 19:805-814, 2011). In all cases, tumor size (area) was monitored every 3-4 days and is reported as mean+/−SD in mm^2.
The DLK1, EphA2, HBB, NG2, NRP1, NRP2, PDGFRβ, PSMA, RGS5, TEM1, VEGFR1 and VEGFR2 antigens were expressed in situ by blood vessel cells in the MC38 colon carcinoma TME (FIG. 14). Protection of HHD mice against a challenge with HLA-A2^neg MC38 tumor cells injected subcutaneously on day zero was assayed with immunization with TBVA-derived peptides on days −14 and −7. […]

| Substance | Survival of B16-bearing HHD mice (B16 melanoma) | B16 tumor growth in HHD mice (B16 melanoma) | Protection against HLA-A2neg MC38 tumor challenge (MC38 colon carcinoma) |
| --- | --- | --- | --- |
| RGS5: RGS5-derived peptide 5-13 pulsed onto DC or DC.IL12 (LAALPHSCL; listed as Homo sapiens) | significant survival benefits | effective in suppressing tumor growth | effective in preventing HLA-A2^neg MC38 tumor establishment or they resulted in the regression of tumors |
| TEM1: TEM1-derived peptide 691-700 pulsed onto DC or DC.IL12 (LLVPTCVFLV; listed as Homo sapiens) | significant survival benefits |  | effective in preventing HLA-A2^neg MC38 tumor establishment or they resulted in the regression of tumors |
| EphA2: EphA2-derived peptide 883-891 pulsed onto DC or DC.IL12 (TLADFDPRV; listed as Homo sapiens) | significant survival benefits | effective in suppressing tumor growth | effective in preventing HLA-A2^neg MC38 tumor establishment or they resulted in the regression of tumors |
